From ChEMBL document CHEMBL4346695, “Thiophenol-formaldehyde triazole causes apoptosis induction in ovary cancer cells and prevents tumor growth formation in mice model” (2019)
Calls of active or inactive are those of the source. The calls are words filed in the database; no cut-off is given here.

Experiments:
Caov-3 cell line [1] = assay: Inhibition of metastasis in human Caov3 cells assessed as decrease in MMP2 expression level at 0.25 uM incubated for 48 hrs by Western blot analysis; type: functional, cell-based
Caov-3 cell line [2] = assay: Induction of Cell cycle arrest in human Caov3 cells assessed as accumulation at S phase at 1 uM incubated for 48 hrs by propidium iodide staining based flow cytometric analysis (reference value: 18.89%); type: functional
Caov-3 cell line [3] = assay: Induction of Cell cycle arrest in human Caov3 cells assessed as accumulation at S phase at 2 uM incubated for 48 hrs by propidium iodide staining based flow cytometric analysis (reference value: 18.89%); type: functional
Caov-3 cell line [4] = assay: Antiinvasive activity in human Caov3 cells at 1.5 uM incubated for 48 hrs using hematoxylin by microscopy-based transwell assay relative to control; type: functional
Caov-3 cell line [5] = assay: Growth inhibition of human Caov3 cells at 0.25 uM incubated for 48 hrs by MTT assay; type: functional, cell-based
Caov-3 cell line [6] = assay: Antitumor activity against human Caov3 cells xenografted in BALB/c nude mouse assessed as tumor size at 5 mg/kg, ip incubated for 1 hr post tumor implantation and measured after 20 days (reference value: 1956 +/- 367 mm3); type: functional
Caov-3 cell line [7] = assay: Antimetastasis activity against human Caov3 cells xenografted in BALB/c nude mouse assessed as reduction in infiltration of macrophages in peritoneal lesions at 5 mg/kg, ip incubated for 1 hr post tumor implantation and measured after 20 days by DAB and hematoxylin staining based immunohistochemical analysis; type: functional, organism-based
Caov-3 cell line [8] = assay: Induction of apoptosis in human Caov3 cells assessed as formation of apoptotic nuclei at 2.0 uM incubated for 48 hrs by Hoechst 33342 staining based fluorescent microscopic method; type: functional, cell-based
Caov-3 cell line [9] = assay: Antimetastasis activity against human Caov3 cells xenografted in BALB/c nude mouse assessed as reduction in vWF expression in liver lesions at 10 mg/kg, ip incubated for 1 hr post tumor implantation and measured after 20 days by DAB and hematoxylin staining based immunohistochemical analysis relative to control; type: functional; design: scale not given: the % may be the effect or the level left
Caov-3 cell line [10] = assay: Induction of apoptosis in human Caov3 cells assessed as formation of apoptotic nuclei at 0.5 uM incubated for 48 hrs by Hoechst 33342 staining based fluorescent microscopic method relative to control; type: functional
Caov-3 cell line [11] = assay: Inhibition of metastasis in human Caov3 cells assessed as decrease in FAK activation level at 0.5 uM incubated for 48 hrs by Western blot analysis; type: functional, cell-based
Caov-3 cell line [12] = assay: Induction of Cell cycle arrest in human Caov3 cells assessed as accumulation at G2/M phase at 1 uM incubated for 48 hrs by propidium iodide staining based flow cytometric analysis (reference value: 22.68%); type: functional
Caov-3 cell line [13] = assay: Antimetastasis activity against human Caov3 cells xenografted in BALB/c nude mouse assessed as reduction in infiltration of macrophages in lungs lesions at 10 mg/kg, ip incubated for 1 hr post tumor implantation and measured after 20 days by DAB and hematoxylin staining based immunohistochemical analysis relative to control; type: functional; design: scale not given: the % may be the effect or the level left
Caov-3 cell line [14] = assay: Antimetastasis activity against human Caov3 cells xenografted in BALB/c nude mouse assessed as reduction of metastasis in liver at 10 mg/kg, ip incubated for 1 hr post tumor implantation and measured after 20 days by H and E staining-based assay; type: functional, organism-based
Caov-3 cell line [15] = assay: Induction of apoptosis in human Caov3 cells assessed as formation of apoptotic nuclei at 0.25 uM incubated for 48 hrs by Hoechst 33342 staining based fluorescent microscopic method relative to control; type: functional
Caov-3 cell line [16] = assay: Antimetastasis activity against human Caov3 cells xenografted in BALB/c nude mouse assessed as reduction in infiltration of macrophages in intestinal lesions at 10 mg/kg, ip incubated for 1 hr post tumor implantation and measured after 20 days by DAB and hematoxylin staining based immunohistochemical analysis relative to control; type: functional; design: scale not given: the % may be the effect or the level left
Caov-3 cell line [17] = assay: Induction of apoptosis in human Caov3 cells at 0.25 to 2.0 uM incubated for 48 hrs by Hoechst 33342 staining based fluorescent microscopic method; type: functional, cell-based
Caov-3 cell line [18] = assay: Induction of Cell cycle arrest in human Caov3 cells assessed as accumulation at G2/M phase at 2 uM incubated for 48 hrs by propidium iodide staining based flow cytometric analysis (reference value: 22.68%); type: functional
Caov-4 = assay: Growth inhibition of human Caov4 cells at 2 uM incubated for 48 hrs by MTT assay relative to control; type: functional; settings: Caov-4, 48 h, read-out: GI
Caov-3 cell line [19] = assay: Induction of Cell cycle arrest in human Caov3 cells assessed as accumulation at G0/G1 phase at 1.5 uM incubated for 48 hrs by propidium iodide staining based flow cytometric analysis (reference value: 57.77%); type: functional
Caov-3 cell line [20] = assay: Growth inhibition of human Caov3 cells at 2 uM incubated for 48 hrs by MTT assay relative to control; type: functional; settings: Caov-3, 48 h, read-out: GI
Caov-3 cell line [21] = assay: Antimetastasis activity against human Caov3 cells xenografted in BALB/c nude mouse assessed as reduction in infiltration of macrophages in intestinal lesions at 5 mg/kg, ip incubated for 1 hr post tumor implantation and measured after 20 days by DAB and hematoxylin staining based immunohistochemical analysis; type: functional, organism-based
Caov-3 cell line [22] = assay: Induction of Cell cycle arrest in human Caov3 cells assessed as accumulation at G0/G1 phase at 2 uM incubated for 48 hrs by propidium iodide staining based flow cytometric analysis (reference value: 57.77%); type: functional
Caov-3 cell line [23] = assay: Induction of apoptosis in human Caov3 cells assessed as formation of apoptotic nuclei at 1.0 uM incubated for 48 hrs by Hoechst 33342 staining based fluorescent microscopic method relative to control; type: functional
Caov-3 cell line [24] = assay: Antimetastasis activity against human Caov3 cells xenografted in BALB/c nude mouse assessed as reduction in vWF expression in peritoneal lesions at 10 mg/kg, ip incubated for 1 hr post tumor implantation and measured after 20 days by DAB and hematoxylin staining based immunohistochemical analysis relative to control; type: functional; design: scale not given: the % may be the effect or the level left
Caov-3 cell line [25] = assay: Growth inhibition of human Caov3 cells at 0.5 uM incubated for 48 hrs by MTT assay; type: functional, cell-based
Caov-3 cell line [26] = assay: Inhibition of metastasis in human Caov3 cells assessed as decrease in MMP9 expression level at 0.25 uM incubated for 48 hrs by Western blot analysis; type: functional, cell-based
Caov-3 cell line [27] = assay: Antimetastasis activity against human Caov3 cells xenografted in BALB/c nude mouse assessed as reduction in infiltration of macrophages in lungs lesions at 5 mg/kg, ip incubated for 1 hr post tumor implantation and measured after 20 days by DAB and hematoxylin staining based immunohistochemical analysis; type: functional, organism-based

SMILES: Fc1ccccc1-n1cc(COCc2ccccc2S)nn1
- inhibition (Caov-3 cell line [1]): inactive
- Activity (Caov-3 cell line [2]): 16.23%
- Activity (Caov-3 cell line [3]): 11.48%
- Activity (Caov-3 cell line [4]): 39.14%
- growth inhibition (GI) (Caov-3 cell line [5]): inactive
- Activity (Caov-3 cell line [6]): 1258 mm3
- Activity (Caov-3 cell line [7]): inactive
- Activity (Caov-3 cell line [8]): Active
- Activity (Caov-3 cell line [9]): 7%
- Activity (Caov-3 cell line [10]): 8.67%
- inhibition (Caov-3 cell line [11]): Active
- Activity (Caov-3 cell line [12]): 21.19%
- Activity (Caov-3 cell line [13]): 9%
- Activity (Caov-3 cell line [14]): Active
- Activity (Caov-3 cell line [15]): 1.26%
- Activity (Caov-3 cell line [16]): 7%
- Activity (Caov-3 cell line [17]): Active
- Activity (Caov-3 cell line [18]): 18.08%
- inhibition of growth at 2 µM (Caov-4): 26%
- Activity (Caov-3 cell line [19]): 64.57%
- inhibition of growth at 2 µM (Caov-3 cell line [20]): 27%
- Activity (Caov-3 cell line [21]): inactive
- Activity (Caov-3 cell line [22]): 69.54%
- Activity (Caov-3 cell line [23]): 21.54%
- Activity (Caov-3 cell line [24]): 5%
- growth inhibition (GI) (Caov-3 cell line [25]): Active
- inhibition (Caov-3 cell line [26]): inactive
- Activity (Caov-3 cell line [27]): inactive
